Experimental data: ChEMBL document CHEMBL1629456, “ApoA-I mimetic peptides promote pre-β HDL formation in vivo causing remodeling of HDL and triglyceride accumulation at higher dose” (Bioorg Med Chem, 2010)
*1 amine or outer side, *2 acyl side, *3 side chain or, on linkers, in order; H or OH if unused. Where a SMILES comes first, the peptide text is derived from it. [ ]: non-standard residue; d: D form. dGly(6-heptenyl) = C=CCCCCC[C@@H](N)C(=O)O; Ala(5-hexenyl) = C=CCCCCC[C@H](N)C(=O)O; X1 = CCCCCCC[C@H](N[*:1])C(=O)[*:2]; X2 = C=CCCCC[C@H](N[*:1])C(=O)[*:2]

Target: Phospholipid-transporting ATPase ABCA1 (Mus musculus, UniProt P41233)
Test: Induction of ABCA1-mediated [3H]cholesterol efflux in mouse RAW 264.7 macrophages after 24 hrs

Phospholipid-transporting ATPase ABCA1, sequence (P41233 whole entry): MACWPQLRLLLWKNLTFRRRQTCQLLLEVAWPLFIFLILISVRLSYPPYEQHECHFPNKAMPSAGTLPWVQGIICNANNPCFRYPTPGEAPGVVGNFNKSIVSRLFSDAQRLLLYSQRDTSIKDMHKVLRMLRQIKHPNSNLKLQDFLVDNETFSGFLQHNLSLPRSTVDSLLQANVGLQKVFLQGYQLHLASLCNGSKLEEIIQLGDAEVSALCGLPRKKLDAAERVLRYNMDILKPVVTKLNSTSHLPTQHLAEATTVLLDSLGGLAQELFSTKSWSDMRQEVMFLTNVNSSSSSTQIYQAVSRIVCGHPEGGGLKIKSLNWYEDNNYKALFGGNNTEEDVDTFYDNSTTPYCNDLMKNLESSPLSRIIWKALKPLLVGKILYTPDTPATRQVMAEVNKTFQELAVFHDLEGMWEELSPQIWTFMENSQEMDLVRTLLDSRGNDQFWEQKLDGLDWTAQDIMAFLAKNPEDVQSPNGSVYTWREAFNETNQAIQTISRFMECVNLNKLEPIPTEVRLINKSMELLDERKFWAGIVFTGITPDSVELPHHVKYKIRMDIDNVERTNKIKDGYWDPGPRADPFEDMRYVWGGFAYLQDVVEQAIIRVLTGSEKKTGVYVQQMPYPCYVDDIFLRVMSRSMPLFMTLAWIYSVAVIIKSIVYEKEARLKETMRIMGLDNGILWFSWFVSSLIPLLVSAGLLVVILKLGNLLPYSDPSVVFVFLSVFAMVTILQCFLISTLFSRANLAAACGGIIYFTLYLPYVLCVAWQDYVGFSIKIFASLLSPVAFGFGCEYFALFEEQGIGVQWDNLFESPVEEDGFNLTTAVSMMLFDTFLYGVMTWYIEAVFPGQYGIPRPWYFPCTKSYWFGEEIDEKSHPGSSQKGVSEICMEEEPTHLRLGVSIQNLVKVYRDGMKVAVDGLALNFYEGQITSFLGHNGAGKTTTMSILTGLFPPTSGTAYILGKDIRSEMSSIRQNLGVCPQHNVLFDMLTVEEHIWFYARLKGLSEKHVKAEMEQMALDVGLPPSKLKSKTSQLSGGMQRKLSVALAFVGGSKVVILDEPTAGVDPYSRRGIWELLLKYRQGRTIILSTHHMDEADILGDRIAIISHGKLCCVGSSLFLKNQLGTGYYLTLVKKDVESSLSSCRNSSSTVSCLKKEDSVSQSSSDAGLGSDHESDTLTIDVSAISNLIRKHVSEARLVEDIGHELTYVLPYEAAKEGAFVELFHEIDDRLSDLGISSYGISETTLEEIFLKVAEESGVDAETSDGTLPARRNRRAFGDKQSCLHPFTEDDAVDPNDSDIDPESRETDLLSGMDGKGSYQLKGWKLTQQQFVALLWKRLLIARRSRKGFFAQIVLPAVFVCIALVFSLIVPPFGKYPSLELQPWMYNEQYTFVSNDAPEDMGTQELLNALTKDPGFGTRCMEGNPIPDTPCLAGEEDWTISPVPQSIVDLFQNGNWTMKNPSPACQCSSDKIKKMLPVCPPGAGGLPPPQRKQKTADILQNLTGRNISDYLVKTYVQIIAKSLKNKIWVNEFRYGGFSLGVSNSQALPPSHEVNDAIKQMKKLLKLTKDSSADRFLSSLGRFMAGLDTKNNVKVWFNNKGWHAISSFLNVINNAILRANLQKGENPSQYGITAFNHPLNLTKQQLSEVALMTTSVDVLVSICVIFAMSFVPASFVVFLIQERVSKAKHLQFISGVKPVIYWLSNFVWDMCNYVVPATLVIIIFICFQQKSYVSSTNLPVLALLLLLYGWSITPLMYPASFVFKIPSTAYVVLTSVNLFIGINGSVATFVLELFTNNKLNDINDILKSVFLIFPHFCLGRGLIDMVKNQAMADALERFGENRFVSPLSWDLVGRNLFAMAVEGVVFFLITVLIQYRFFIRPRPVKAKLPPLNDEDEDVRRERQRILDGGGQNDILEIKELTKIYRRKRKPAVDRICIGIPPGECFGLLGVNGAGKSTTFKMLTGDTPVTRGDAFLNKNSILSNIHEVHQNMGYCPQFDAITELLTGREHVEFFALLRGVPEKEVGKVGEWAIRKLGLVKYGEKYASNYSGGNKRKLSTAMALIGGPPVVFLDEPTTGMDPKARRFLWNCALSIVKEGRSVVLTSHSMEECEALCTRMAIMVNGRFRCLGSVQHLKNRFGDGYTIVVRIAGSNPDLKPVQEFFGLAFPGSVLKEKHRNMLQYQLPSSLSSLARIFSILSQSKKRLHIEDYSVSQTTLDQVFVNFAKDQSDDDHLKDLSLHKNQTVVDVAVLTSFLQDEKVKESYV

First: C=CCCCCC[C@H](NC(=O)[C@H](CCC(N)=O)NC(=O)[C@H](CCCCN)NC(=O)[C@H](CC(C)C)NC(=O)[C@H](C)NC(=O)[C@H](CCC(=O)O)NC(=O)[C@H](CC(C)C)NC(=O)[C@H](CCCCCC=C)NC(=O)[C@H](CCC(=O)O)NC(=O)[C@H](CC(N)=O)NC(=O)[C@H](CC(C)C)NC(=O)[C@H](CCCCN)NC(=O)[C@H](CCC(=O)O)NC(=O)[C@H](CCCN=C(N)N)NC(=O)[C@H](Cc1ccccc1)NC(=O)[C@H](CCC(=O)O)NC(=O)[C@H](CC(=O)O)NC(=O)[C@H](CC(C)C)NC(=O)[C@H](CCCCCC=C)NC(=O)[C@@H]1CCCN1C(C)=O)C(=O)N[C@@H](CC(C)C)C(=O)N[C@@H](CCCCN)C(N)=O (Ac-P[Ala(5-hexenyl)]LDEFREKLNE[Ala(5-hexenyl)]LEALKQ[Ala(5-hexenyl)]LK-NH2)
Second: C=CCCCCC[C@H](NC(=O)[C@H](CCC(=O)O)NC(=O)[C@H](CC(N)=O)NC(=O)[C@H](CC(C)C)NC(=O)[C@H](CCCCN)NC(=O)[C@H](CCC(=O)O)NC(=O)[C@H](CCCN=C(N)N)NC(=O)[C@H](Cc1ccccc1)NC(=O)[C@H](CCC(=O)O)NC(=O)[C@H](CC(=O)O)NC(=O)[C@H](CC(C)C)NC(=O)[C@H](CCCCCC=C)NC(=O)[C@@H]1CCCN1C(C)=O)C(=O)N[C@@H](CC(C)C)C(=O)N[C@@H](CCC(=O)O)C(=O)N[C@@H](C)C(=O)N[C@@H](CC(C)C)C(=O)N[C@@H](CCCCN)C(=O)N[C@@H](CCC(N)=O)C(=O)N[C@@H](CCCCN)C(=O)N[C@@H](CC(C)C)C(=O)N[C@@H](CCCCN)C(N)=O (Ac-P[Ala(5-hexenyl)]LDEFREKLNE[Ala(5-hexenyl)]LEALKQKLK-NH2)
The EC50 of the first is 12-fold higher: 5 µM for the first, 0.4 µM for the second.

`C=CCCCC[C@@H](NC(=O)[C@H](CCCCN)NC(=O)[C@H](CCC(=O)O)NC(=O)[C@H](CCCNC(=N)N)NC(=O)[C@H](Cc1ccccc1)NC(=O)[C@H](CCC(=O)O)NC(=O)[C@H](CC(=O)O)NC(=O)[C@H](CC(C)C)NC(=O)[C@@H](NC(=O)[C@@H]1CCCN1C(C)=O)C(C)C)C(=O)N[C@@H](CC(N)=O)C(=O)N[C@@H](CCC(=O)O)C(=O)N[C@@H](CCC(=O)O)C(=O)N[C@@H](CC(C)C)C(=O)N[C@@H](CCC(=O)O)C(=O)N[C@@H](C)C(=O)N[C@@H](CC(C)C)C(=O)N[C@@H](CCCCN)C(=O)N[C@@H](CCC(N)=O)C(=O)N[C@@H](CCCCN)C(=O)N[C@@H](CC(C)C)C(=O)N[C@@H](CCCCN)C(N)=O` and `C=CCCCC[C@H](NC(=O)[C@H](CCCCN)NC(=O)[C@H](CCC(N)=O)NC(=O)[C@H](CCCCN)NC(=O)[C@H](CC(C)C)NC(=O)[C@H](C)NC(=O)[C@H](CCC(=O)O)NC(=O)[C@H](CC(C)C)NC(=O)[C@H](CCC(=O)O)NC(=O)[C@H](CCC(=O)O)NC(=O)[C@H](CC(N)=O)NC(=O)[C@H](CC(C)C)NC(=O)[C@H](CCCCN)NC(=O)[C@H](CCC(=O)O)NC(=O)[C@H](CCCNC(=N)N)NC(=O)[C@H](Cc1ccccc1)NC(=O)[C@H](CCC(=O)O)NC(=O)[C@H](CC(=O)O)NC(=O)[C@H](CC(C)C)NC(=O)[C@@H](NC(=O)[C@@H]1CCCN1C(C)=O)C(C)C)C(=O)N[C@@H](CCCCN)C(N)=O` cannot be ordered by EC50: greater than 100 µM for the first, greater than 100 µM for the second.

Going from `C=CCCCCC[C@@H](NC(=O)[C@H](CCC(=O)O)NC(=O)[C@H](CC(N)=O)NC(=O)[C@H](CC(C)C)NC(=O)[C@H](CCCCN)NC(=O)[C@H](CCC(=O)O)NC(=O)[C@H](CCCN=C(N)N)NC(=O)[C@H](Cc1ccccc1)NC(=O)[C@H](CCC(=O)O)NC(=O)[C@H](CC(=O)O)NC(=O)[C@H](CC(C)C)NC(=O)[C@@H](NC(=O)[C@@H]1CCCN1C(C)=O)C(C)C)C(=O)N[C@@H](CC(C)C)C(=O)N[C@@H](CCC(=O)O)C(=O)N[C@@H](C)C(=O)N[C@@H](CC(C)C)C(=O)N[C@@H](CCCCN)C(=O)N[C@@H](CCC(N)=O)C(=O)N[C@@H](CCCCN)C(=O)N[C@@H](CC(C)C)C(=O)N[C@@H](CCCCN)C(N)=O` (Ac-PVLDEFREKLNE[dGly(6-heptenyl)]LEALKQKLK-NH2) to `CCCCCCC[C@H](NC(=O)[C@H](CCC(=O)O)NC(=O)[C@H](CC(N)=O)NC(=O)[C@H](CC(C)C)NC(=O)[C@H](CCCCN)NC(=O)[C@H](CCC(=O)O)NC(=O)[C@H](CCCN=C(N)N)NC(=O)[C@H](Cc1ccccc1)NC(=O)[C@H](CCC(=O)O)NC(=O)[C@H](CC(=O)O)NC(=O)[C@H](CC(C)C)NC(=O)[C@@H](NC(=O)[C@@H]1CCCN1C(C)=O)C(C)C)C(=O)N[C@@H](CC(C)C)C(=O)N[C@@H](CCC(=O)O)C(=O)N[C@@H](C)C(=O)N[C@@H](CC(C)C)C(=O)N[C@@H](CCCCN)C(=O)N[C@@H](CCC(N)=O)C(=O)N[C@@H](CCCCN)C(=O)N[C@@H](CC(C)C)C(=O)N[C@@H](CCCCN)C(N)=O` (Ac-PVLDEFREKLNE[X1]LEALKQKLK-NH2), the EC50 falls from 9.5 µM to 0.7 µM (14-fold).

`C=CCCCC[C@@H](NC(=O)[C@H](CCC(=O)O)NC(=O)[C@H](CCCNC(=N)N)NC(=O)[C@H](Cc1ccccc1)NC(=O)[C@H](CCC(=O)O)NC(=O)[C@H](CC(=O)O)NC(=O)[C@H](CC(C)C)NC(=O)[C@@H](NC(=O)[C@@H]1CCCN1C(C)=O)C(C)C)C(=O)N[C@@H](CC(C)C)C(=O)N[C@@H](CC(N)=O)C(=O)N[C@@H](CCC(=O)O)C(=O)N[C@@H](CCC(=O)O)C(=O)N[C@@H](CC(C)C)C(=O)N[C@@H](CCC(=O)O)C(=O)N[C@@H](C)C(=O)N[C@@H](CC(C)C)C(=O)N[C@@H](CCCCN)C(=O)N[C@@H](CCC(N)=O)C(=O)N[C@@H](CCCCN)C(=O)N[C@@H](CC(C)C)C(=O)N[C@@H](CCCCN)C(N)=O` and `C=CCCCC[C@H](NC(=O)[C@H](CCC(N)=O)NC(=O)[C@H](CCCCN)NC(=O)[C@H](CC(C)C)NC(=O)[C@H](C)NC(=O)[C@H](CCC(=O)O)NC(=O)[C@H](CC(C)C)NC(=O)[C@H](CCC(=O)O)NC(=O)[C@H](CCC(=O)O)NC(=O)[C@H](CC(N)=O)NC(=O)[C@H](CC(C)C)NC(=O)[C@H](CCCCN)NC(=O)[C@H](CCC(=O)O)NC(=O)[C@H](CCCNC(=N)N)NC(=O)[C@H](Cc1ccccc1)NC(=O)[C@H](CCC(=O)O)NC(=O)[C@H](CC(=O)O)NC(=O)[C@H](CC(C)C)NC(=O)[C@@H](NC(=O)[C@@H]1CCCN1C(C)=O)C(C)C)C(=O)N[C@@H](CC(C)C)C(=O)N[C@@H](CCCCN)C(N)=O` cannot be ordered by EC50: greater than 100 µM for the first, 213 µM for the second.

Going from `C=CCCCCC[C@H](NC(=O)[C@H](CCC(N)=O)NC(=O)[C@H](CCCCN)NC(=O)[C@H](CC(C)C)NC(=O)[C@H](C)NC(=O)[C@H](CCC(=O)O)NC(=O)[C@H](CC(C)C)NC(=O)[C@H](CCCCCC=C)NC(=O)[C@H](CCC(=O)O)NC(=O)[C@H](CC(N)=O)NC(=O)[C@H](CC(C)C)NC(=O)[C@H](CCCCN)NC(=O)[C@H](CCC(=O)O)NC(=O)[C@H](CCCNC(=N)N)NC(=O)[C@H](CCCCCC=C)NC(=O)[C@H](CCC(=O)O)NC(=O)[C@H](CC(=O)O)NC(=O)[C@H](CC(C)C)NC(=O)[C@@H](NC(=O)[C@@H]1CCCN1C(C)=O)C(C)C)C(=O)N[C@@H](CC(C)C)C(=O)N[C@@H](CCCCN)C(N)=O` (Ac-PVLDE[Ala(5-hexenyl)]REKLNE[Ala(5-hexenyl)]LEALKQ[Ala(5-hexenyl)]LK-NH2) to `C=CCCCCC[C@H](NC(=O)[C@H](CCC(=O)O)NC(=O)[C@H](CC(=O)O)NC(=O)[C@H](CC(C)C)NC(=O)[C@@H](NC(=O)[C@@H]1CCCN1C(C)=O)C(C)C)C(=O)N[C@@H](CCCNC(=N)N)C(=O)N[C@@H](CCC(=O)O)C(=O)N[C@@H](CCCCN)C(=O)N[C@@H](CC(C)C)C(=O)N[C@@H](CC(N)=O)C(=O)N[C@@H](CCC(=O)O)C(=O)N[C@@H](CCC(=O)O)C(=O)N[C@@H](CC(C)C)C(=O)N[C@@H](CCC(=O)O)C(=O)N[C@@H](C)C(=O)N[C@@H](CC(C)C)C(=O)N[C@@H](CCCCN)C(=O)N[C@@H](CCC(N)=O)C(=O)N[C@@H](CCCCN)C(=O)N[C@@H](CC(C)C)C(=O)N[C@@H](CCCCN)C(N)=O`, the EC50 rises from 1.8 µM to greater than 100 µM. The first is the more potent here.

Going from `C=CCCCC[C@H](NC(=O)[C@H](CCC(=O)O)NC(=O)[C@H](CCC(=O)O)NC(=O)[C@H](CC(N)=O)NC(=O)[C@H](CC(C)C)NC(=O)[C@H](CCCCN)NC(=O)[C@H](CCC(=O)O)NC(=O)[C@H](CCCNC(=N)N)NC(=O)[C@H](Cc1ccccc1)NC(=O)[C@H](CCC(=O)O)NC(=O)[C@H](CC(=O)O)NC(=O)[C@H](CC(C)C)NC(=O)[C@@H](NC(=O)[C@@H]1CCCN1C(C)=O)C(C)C)C(=O)N[C@@H](CCC(=O)O)C(=O)N[C@@H](C)C(=O)N[C@@H](CC(C)C)C(=O)N[C@@H](CCCCN)C(=O)N[C@@H](CCC(N)=O)C(=O)N[C@@H](CCCCN)C(=O)N[C@@H](CC(C)C)C(=O)N[C@@H](CCCCN)C(N)=O` to `C=CCCCC[C@H](NC(=O)[C@H](CCC(=O)O)NC(=O)[C@H](CC(N)=O)NC(=O)[C@H](CC(C)C)NC(=O)[C@H](CCCCN)NC(=O)[C@H](CCC(=O)O)NC(=O)[C@H](CCCNC(=N)N)NC(=O)[C@H](Cc1ccccc1)NC(=O)[C@H](CCC(=O)O)NC(=O)[C@H](CC(=O)O)NC(=O)[C@H](CC(C)C)NC(=O)[C@@H](NC(=O)[C@@H]1CCCN1C(C)=O)C(C)C)C(=O)N[C@@H](CC(C)C)C(=O)N[C@@H](CCC(=O)O)C(=O)N[C@@H](C)C(=O)N[C@@H](CC(C)C)C(=O)N[C@@H](CCCCN)C(=O)N[C@@H](CCC(N)=O)C(=O)N[C@@H](CCCCN)C(=O)N[C@@H](CC(C)C)C(=O)N[C@@H](CCCCN)C(N)=O` (Ac-PVLDEFREKLNE[X2]LEALKQKLK-NH2), the EC50 falls from greater than 100 µM to 1.4 µM.

`C=CCCCC[C@H](NC(=O)[C@H](CCC(=O)O)NC(=O)[C@H](CC(=O)O)NC(=O)[C@H](CC(C)C)NC(=O)[C@@H](NC(=O)[C@@H]1CCCN1C(C)=O)C(C)C)C(=O)N[C@@H](CCCNC(=N)N)C(=O)N[C@@H](CCC(=O)O)C(=O)N[C@@H](CCCCN)C(=O)N[C@@H](CC(C)C)C(=O)N[C@@H](CC(N)=O)C(=O)N[C@@H](CCC(=O)O)C(=O)N[C@@H](CCC(=O)O)C(=O)N[C@@H](CC(C)C)C(=O)N[C@@H](CCC(=O)O)C(=O)N[C@@H](C)C(=O)N[C@@H](CC(C)C)C(=O)N[C@@H](CCCCN)C(=O)N[C@@H](CCC(N)=O)C(=O)N[C@@H](CCCCN)C(=O)N[C@@H](CC(C)C)C(=O)N[C@@H](CCCCN)C(N)=O` and `C=CCCCC[C@@H](NC(=O)[C@@H]1CCCN1C(C)=O)C(=O)N[C@@H](CC(C)C)C(=O)N[C@@H](CC(=O)O)C(=O)N[C@@H](CCC(=O)O)C(=O)N[C@@H](Cc1ccccc1)C(=O)N[C@@H](CCCN=C(N)N)C(=O)N[C@@H](CCC(=O)O)C(=O)N[C@@H](CCCCN)C(=O)N[C@@H](CC(C)C)C(=O)N[C@@H](CC(N)=O)C(=O)N[C@@H](CCC(=O)O)C(=O)N[C@@H](CCC(=O)O)C(=O)N[C@@H](CC(C)C)C(=O)N[C@@H](CCC(=O)O)C(=O)N[C@@H](C)C(=O)N[C@@H](CC(C)C)C(=O)N[C@@H](CCCCN)C(=O)N[C@@H](CCC(N)=O)C(=O)N[C@@H](CCCCN)C(=O)N[C@@H](CC(C)C)C(=O)N[C@@H](CCCCN)C(N)=O` cannot be ordered by EC50: greater than 100 µM for the first, greater than 100 µM for the second.
